This is an account of results in PMC7849018 (Antimicrobial Agents and Chemotherapy, 2021).

SMILES strings stand for the structures.

Data set [1] deals with human mitochondrial POLRMT (Homo sapiens, UniProt O00411). Kind of data set: Single nucleotide incorporation assay. Format: biochemical. Conditions: 500 μM nucleotide analog; relative to natural NTP at same concentration.
Data set [2] in a line: in vitro. The note with it: human, CC50, Myeloid progenitors; 11- to 14-day treatment.
Data set [3] has as its system COX-1 (mitochondrial DNA-encoded cytochrome c oxidase, complex IV) protein level. Kind of data set: Mitochondrial protein synthesis assay. It is filed as cell-based. The note with it: human, PC-3 cells.
Data set [4] in a line: Cellular ATP alongside the mitochondrial protein synthesis assay. The note with it: human, PC-3 cells.
Data set [5] is described as follows: Mitochondrial respiration. Format: cell-based. Conditions: human, PC-3 cells, 3-day treatment.
Data set [6] deals with SDH-A (nuclear DNA-encoded succinate dehydrogenase, complex II) protein level. Kind of data set: Mitochondrial protein synthesis assay. Conditions: human, PC-3 cells. It is filed as cell-based.
Data set [7] is described as follows: Mitochondrial respiration. Format: cell-based. Conditions: human; for CC50 at 3 days: primary human hepatocytes (PHH).
The test system of data set [8] is HepG2 cells. Kind of data set: Intracellular reactive oxygen species level. Conditions: 30-minute incubation (100 or 200 μM). It is filed as cell-based, human.

Chain of human mitochondrial POLRMT (O00411 42-1230): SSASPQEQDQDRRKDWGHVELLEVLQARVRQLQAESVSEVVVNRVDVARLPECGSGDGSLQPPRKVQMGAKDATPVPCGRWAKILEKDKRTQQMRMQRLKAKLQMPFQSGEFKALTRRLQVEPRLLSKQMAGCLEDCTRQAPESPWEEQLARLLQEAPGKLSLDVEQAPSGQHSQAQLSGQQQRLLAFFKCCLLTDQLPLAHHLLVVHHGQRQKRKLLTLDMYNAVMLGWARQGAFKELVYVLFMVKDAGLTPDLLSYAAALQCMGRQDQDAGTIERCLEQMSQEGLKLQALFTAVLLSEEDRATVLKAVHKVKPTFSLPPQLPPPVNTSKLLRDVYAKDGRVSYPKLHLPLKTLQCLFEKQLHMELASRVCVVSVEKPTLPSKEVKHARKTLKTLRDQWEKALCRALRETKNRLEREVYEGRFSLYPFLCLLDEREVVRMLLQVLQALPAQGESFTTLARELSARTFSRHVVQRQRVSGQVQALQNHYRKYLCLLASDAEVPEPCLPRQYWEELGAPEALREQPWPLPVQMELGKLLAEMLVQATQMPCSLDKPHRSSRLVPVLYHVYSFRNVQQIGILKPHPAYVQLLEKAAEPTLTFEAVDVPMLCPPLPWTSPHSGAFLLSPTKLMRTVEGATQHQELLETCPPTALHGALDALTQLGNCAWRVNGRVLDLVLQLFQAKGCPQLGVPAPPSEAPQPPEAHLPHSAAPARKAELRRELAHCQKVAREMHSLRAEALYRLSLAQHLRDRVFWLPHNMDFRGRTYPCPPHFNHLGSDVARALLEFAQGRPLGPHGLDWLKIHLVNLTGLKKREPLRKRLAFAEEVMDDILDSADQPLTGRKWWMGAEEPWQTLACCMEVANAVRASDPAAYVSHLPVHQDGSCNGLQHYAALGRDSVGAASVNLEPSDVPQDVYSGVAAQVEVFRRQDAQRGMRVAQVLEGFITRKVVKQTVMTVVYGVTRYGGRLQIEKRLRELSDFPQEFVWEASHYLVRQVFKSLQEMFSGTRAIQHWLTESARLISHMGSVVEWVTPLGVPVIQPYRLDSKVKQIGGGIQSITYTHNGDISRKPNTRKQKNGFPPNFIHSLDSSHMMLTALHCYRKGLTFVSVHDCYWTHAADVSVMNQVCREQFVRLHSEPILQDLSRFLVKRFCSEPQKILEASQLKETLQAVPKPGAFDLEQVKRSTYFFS

For the compound `COc1nc(N)nc2c1ncn2[C@@H]1O[C@H](COP(=O)(N[C@@H](C)C(=O)OCC(C)(C)C)Oc2cccc3ccccc23)[C@@H](O)[C@@]1(C)O` (stereo partly shown) [2’CMe-GTP, 2′CMe-GTP], in data set [1], the “Rate of incorporation (% of natural dNTP or NTP), mtRNA polymerase” value was 92% ± 33%.
Same read-out and setting: the same measure for `CC(C)C(=O)OC[C@@]1(N=[N+]=[N-])O[C@@H](n2ccc(N)nc2=O)[C@H](OC(=O)C(C)C)[C@@H]1OC(=O)C(C)C` [4’CN-CTP, 4′-CN-CTP]: 112% ± 10%.
As for `O=c1[nH]cc(F)c(=O)[nH]1` [5-fluorouracil, reference compound], the CC50 in data set [2] worked out at 2.2 ± 0.6 µM.
As for `O=C(N[C@H](CO)[C@H](O)c1ccc([N+](=O)[O-])cc1)C(Cl)Cl` [Chloramphenicol, chloramphenicol, reference compound], the CC50 at 5 days in data set [3] was 2.6 ± 0.6 µM; in data set [4], 14.1 ± 3.6 µM; in data set [6] it was > 25 µM. The CC50 at 3 day was > 50 µM in data set [5] (3-day CC50 Cellular ATP); > 50 µM in data set [5] (3-day CC50 Total DNA content); 4.8 ± 1.3 µM in data set [5] (pH 7.4, 3-day CC50 Spare respiration).
The compound `[H]/N=C(/N)N/C(=N/[H])NCCc1ccccc1` [Phenformin, phenformin, reference compound] gave a CC50 at 3 day in data set [7] (PHH cells (primary human hepatocytes)) of 9.7 ± 4.5 µM. In addition, the CC50 at 3 days in data set [7] is 22.1 ± 1.9 µM; in data set [7] (pH 7.4), 1.9 ± 0.5 µM.
Turning to `CC1=CC(=O)c2ccccc2C1=O` [menadione, reference compound], the “increase in ROS levels” value in data set [8] was > 3 fold.
